The record followed here is patent US11174267B2, “Spiroindolinones and therapeutic uses thereof” (The Regents of the University of California, priority 2015, dated 2021).

The subject of this assay is resistant clinical isolates of C. albicans. The assay is described as follows: EC50 against selected resistant clinical isolates with fluconazole. The note with it: Candida albicans, fluconazole 64 μg/mL. It is filed as cell-based. As to the method: C. albicans was grown in SC medium overnight and then diluted to an effective OD600 of 0.0625. Serial ten-fold dilutions of the test compounds (0.15-1500 μM) were prepared in DMSO in 1.5 mL Eppendorf tubes. […] The plates were incubated in a rotary shaker/incubator at 30° C. for 16 h. The contents of each well was resuspended with a micropipettor and a 20 μL aliquot was added to a polystyrene cuvette and diluted with 680 μL of deionized water. The suspension was triturated again immediately before measuring the absorbance at 600 nm (OD600) for cell densities. EC50 values were determined by fitting to the Hill equation using the Excel-based tool ED50PLUS v1.0 (Mario H. Vargas) or using Mathematica. Similar procedures were used for Candida glabrata and Cryptococcus neoformans.
(Flowers, S. A., et al. Eukaryotic Cell 2012, 11, 1289-1299.) The strains grow at dramatically different rates.

Read-outs that look alike come from different tables or passages of the source.

In the case of `Cc1c(Cl)ccc2c1NC(=O)[C@@]21[C@H]2C(=O)N(c3ccccc3)C(=O)[C@H]2[C@H]2CN(C(=O)OCc3ccccc3)CCN21` (racemic) [Compound 25, (±)-benzyl (3R,3a′R,3b'S,9a'S)-6-chloro-7-methyl-1′,2,3′-trioxo-2′-phenyl-2′,3′,3a′,3b′,4′,6′,7′,9a′-octahydrospiro[indoline-3,9′-pyrrolo[3′,4′:3,4]pyrrolo[1,2-a]pyrazine]-5′(1′H)-carboxylate], the EC50 is, setting by setting: (read-out: Potency Cpd 25 EC50, clinical isolate 17) 5 nM; (read-out: Potency Cpd 25 EC50, clinical isolate 23) 53 nM; (read-out: Potency Cpd 25 EC50, clinical isolate 26) 2 nM; (read-out: Potency Cpd 25 EC50, clinical isolate 33) 11 nM; (read-out: Potency Cpd 25 EC50, clinical isolate 36) 5 nM; (read-out: Potency Cpd 25 EC50, clinical isolate 45) 16 nM.
